According to patent publication US20140221460A1, “METHOD FOR IDENTIFYING MODULATORS OF HCV TRANSLATION OR REPLICATION INVOLVING THE NS5B POLYPEPTIDE AND A PSEUDOKNOT” (priority 2011, published 2014):

Tests used:
[1] = system: sub-genomic replicon, genotype 1b (Con1b); assay: Sub-genomic replicon assay (luciferase); assay type: cell-based, hepatitis C virus; settings: FIG. 8
Procedure: This assay uses a sub-genomic replicon analogous to that described by Lohmann (Lohmann et al., 1999). As above, we co-transfect an RNA encoding renilla […] luciferase to allow normalization of transfection levels. In these assays we usually transfect the sub-genomic replicon (and renilla) RNA 24 hours before addition of the oligonucleotides.
In this assay we investigated inhibition of luciferase gene activity encoding by the sub-genomic replicon and the influence of prior transfection of oligonucleotides directed against SL9266 or SL9571. The sub-genomic replicon is a genotype 1b sequences (Con1b) and directly complementary oligonucleotides directed against SL9266 (labelled anti SL9266_C) inhibit replication by ˜70% (see FIG. 8).

[2] = system: translation of hepatitis C virus; assay: Translation assay with bicistronic luciferase reporter, co-transfected with oligonucleotides; assay type: cell-based; settings: Huh-7.5 cells, added at 1600 nM, normalized to untreated samples
Source text: The translation assay uses the bicistronic reporter gene system described in Example 1. In brief, a firefly luciferase reporter gene is under the translational control of the HCV internal ribosome entry site (IRES) as part of the complete 5′ untranslated region of HCV. The luciferase gene is followed by an IRES from an unrelated virus (encephalomyocarditis virus; EMCV) which drives expression of the RNA dependent RNA polymerase (RdRp) of HCV (the NS5B protein) which, in turn, is followed by the HCV 3′ untranslated region (3′ UTR).
All experiments are routinely conducted in human hepatoma cells—Huh-7.5. This is the cell line in which HCV replicates. However, we have also investigated the bicistronic reporter system in HepG2, HeLa and murine cell lines, as well as in cell free translation systems supplemented with Huh-7.5 cell extracts.
The readout of the translation assay is luciferase activity. To control for differences in transfection we co-transfected a separate plasmid encoding renilla luciferase and normalize all firefly results to this.
The translation inhibition assay is typically conducted by co-transfecting RNA generated in vitro from the bicistronic reporter plasmid with oligonucleotides to be tested. Assays for luciferase are routinely conducted four hours post transfection.

[3] = system: genotype 2a JFH-1 hepatitis C virus; assay: Virus production / virus replication assay (HCVcc, NS5A immunofocal staining); assay type: cell-based; settings: JFH-1 in Huh-7.5 cells, compared to untreated cells, FIG. 9
Procedure: This assay uses the HCVcc system that measures the production of infectious genotype 2a JFH-1 hepatitis C virus as described previously (Wakita et al., 2005). In this assay oligonucleotides directed against RNA sequences or structures are transfected into Huh-7.5 cells and a known amount of virus added 4 hours later. After 24 hours incubation the cell sheet is fixed and virus replication quantified by immunofocal staining for virus antigen (in this instance the NS5A protein). Infected cells are counted using a fluorescence microscope.

Substance: 5′-ACGCTGTGAAAAATGTC-3′ [JFH-1 anti-SL9266 LNA oligonucleotide]
- inhibition of replication (replicon luciferase activity), in words [1]: only partially inhibitory

Substance: 5′-GCACAGCGCAAGTATGTTA-3′ [Randomised LNA oligonucleotide]
- inhibition of translation (maximum) [2]: ~20%
- influence on virus replication, in words [3]: little or no influence

Substance: 5′-GGGCACGAGACAGGCTGTGAT-3′ [Con1b anti-SL9266 LNA oligonucleotide]
- inhibition of replication (replicon luciferase activity) [1]: ~70%
